# Laboratory results taken from BindingDB's records for doi:10.7270/Q29G5K8R (Burnham Center For Chemical Genomics, 2010).
# Biological target: Intestinal-type alkaline phosphatase (Homo sapiens, UniProt P09923)
# Experiment: activation of human intestinal alkaline phosphatase – biochemical, dose response (AID 488873)
# Sequence of Intestinal-type alkaline phosphatase (P09923 whole entry): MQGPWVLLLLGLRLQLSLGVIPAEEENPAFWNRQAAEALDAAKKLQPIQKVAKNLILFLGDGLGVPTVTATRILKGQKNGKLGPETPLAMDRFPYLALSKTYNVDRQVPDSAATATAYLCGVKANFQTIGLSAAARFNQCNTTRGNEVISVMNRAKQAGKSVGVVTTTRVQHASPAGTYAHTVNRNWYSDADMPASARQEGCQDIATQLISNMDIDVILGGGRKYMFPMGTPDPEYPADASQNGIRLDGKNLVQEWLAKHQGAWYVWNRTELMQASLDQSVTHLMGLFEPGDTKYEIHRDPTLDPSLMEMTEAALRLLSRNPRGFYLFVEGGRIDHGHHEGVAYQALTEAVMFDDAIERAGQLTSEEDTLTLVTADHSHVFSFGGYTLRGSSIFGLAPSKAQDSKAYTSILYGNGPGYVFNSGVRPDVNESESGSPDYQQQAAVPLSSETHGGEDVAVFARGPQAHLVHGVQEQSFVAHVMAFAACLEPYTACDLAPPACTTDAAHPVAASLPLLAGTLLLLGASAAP
row,SMILES,EC50 [µM]
1,CN(CCO)c1ccc(CN=Nc2ccc([N+](=O)[O-])cc2S(=O)(=O)Nc2ccccc2C(=O)O)cc1,26.6
2,"O=C(NN=CC1=CC(=O)C(=O)CC1)NN=CC1=CC(=O)C(=O)CC1 [1,3-bis[[(Z)-(3-hydroxy-4-oxocyclohexa-2,5-dien-1-ylidene)methyl]amino]urea]",66.2
3,"O=C1CC(=O)c2c(O)cc(O)c(O)c2C1=O [4,5,7,8-tetrahydroxy-1,2-naphthoquinone]",> 100
4,"Oc1ccc(CN=Nc2cc(N3CCCC3)nc(N3CCCC3)n2)cc1O [(4Z)-4-[[2-(2,6-dipyrrolidin-1-ylpyrimidin-4-yl)hydrazinyl]methylidene]-2-hydroxycyclohexa-2,5-dien-1-one]",> 100
5,C#CCOCCOCCOCCNc1nc(N2CCN(C(=O)CCCCCCCCCCNC(=O)[C@@H](CCC(=O)O)n3cc(CCCCCN)nn3)CC2)nc(N2CCN(C(=O)CCCCCCCCCCNC(=O)[C@H]([C@@H](C)CC)n3cc(CCCCCN)nn3)CC2)n1 [KI-KE],> 100
6,Cc1cc(=O)[nH]c(N=NCc2ccc(O)c(O)c2)n1 [MLS001194906],66.2
